Assay results as given in patent US20090215857A1 (Pfizer Products Inc., priority 2005, published 2009).
Counter-ions that a name gives are not always drawn.

Tests used:
[1] = target: T1, human serotonin transporter (Homo sapiens, UniProt P31645); assay: hSERT receptor binding ([125I]-RTI-55 radioligand); details: membranes of HEK-293 cells transfected with human serotonin transporter cDNA; 50 pM [125I]-RTI-55; IC50 converted by Cheng-Prusoff; read-out: SERT Ki
T1 construct: expressed in transfected cells; host or cells: HEK-293
T1 sequence (P31645 whole entry): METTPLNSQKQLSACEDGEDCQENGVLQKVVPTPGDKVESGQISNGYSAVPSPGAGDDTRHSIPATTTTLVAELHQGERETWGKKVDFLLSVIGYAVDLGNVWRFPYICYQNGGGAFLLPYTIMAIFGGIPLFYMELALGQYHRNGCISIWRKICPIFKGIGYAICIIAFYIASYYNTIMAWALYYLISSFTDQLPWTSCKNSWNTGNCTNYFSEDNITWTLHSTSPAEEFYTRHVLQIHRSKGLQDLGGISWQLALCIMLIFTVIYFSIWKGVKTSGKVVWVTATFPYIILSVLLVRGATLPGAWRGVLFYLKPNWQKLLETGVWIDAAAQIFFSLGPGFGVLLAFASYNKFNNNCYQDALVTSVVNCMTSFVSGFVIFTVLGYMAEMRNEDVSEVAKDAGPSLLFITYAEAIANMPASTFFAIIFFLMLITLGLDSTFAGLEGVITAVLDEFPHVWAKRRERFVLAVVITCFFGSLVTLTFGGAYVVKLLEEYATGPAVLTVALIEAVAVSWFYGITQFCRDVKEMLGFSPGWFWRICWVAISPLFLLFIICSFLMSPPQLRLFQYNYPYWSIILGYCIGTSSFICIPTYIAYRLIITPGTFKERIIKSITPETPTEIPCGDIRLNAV
In short: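 Ki values derive via Cheng-Prusoff from IC50s of displacement of 50 pM [125I]-RTI-55 binding to transfected HEK-293 membranes, 90 min at room temperature in pH 7.4 Krebs-HEPES buffer. Compounds spanned 10^−12 to 10^−5 M, in duplicate; nonspecific binding was set with 10 μM citalopram.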

[2] = target: T2, human norepinephrine transporter (Homo sapiens, UniProt P23975); assay: hNET receptor binding ([125I]-RTI-55 radioligand); details: membranes of HEK-293 cells transfected with human norepinephrine transporter cDNA; 50 pM [125I]-RTI-55; IC50 converted by Cheng-Prusoff; read-out: NET Ki
T2 construct: expressed in transfected cells; host or cells: HEK-293
T2 sequence (P23975 whole entry): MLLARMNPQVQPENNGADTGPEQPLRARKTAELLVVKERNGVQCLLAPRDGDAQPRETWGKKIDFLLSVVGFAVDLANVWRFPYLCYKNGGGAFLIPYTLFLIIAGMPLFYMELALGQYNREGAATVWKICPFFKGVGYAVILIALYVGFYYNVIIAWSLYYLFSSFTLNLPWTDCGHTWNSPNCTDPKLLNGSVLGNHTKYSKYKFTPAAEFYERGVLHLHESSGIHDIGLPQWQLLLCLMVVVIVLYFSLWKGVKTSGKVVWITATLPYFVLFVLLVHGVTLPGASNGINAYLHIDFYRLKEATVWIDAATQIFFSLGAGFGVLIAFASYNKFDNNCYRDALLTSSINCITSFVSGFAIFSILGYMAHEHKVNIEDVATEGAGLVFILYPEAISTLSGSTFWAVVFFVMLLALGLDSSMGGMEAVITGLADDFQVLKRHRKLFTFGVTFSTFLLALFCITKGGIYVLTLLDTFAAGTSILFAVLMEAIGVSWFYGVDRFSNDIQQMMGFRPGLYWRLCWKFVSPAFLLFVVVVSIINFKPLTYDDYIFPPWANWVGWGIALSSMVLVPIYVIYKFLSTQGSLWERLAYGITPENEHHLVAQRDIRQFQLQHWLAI
In short: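 Membranes from HEK-293 cells expressing human NET were incubated 90 min at room temperature with 50 pM [125I]-RTI-55 and test compound (10^−5M to 10^−12M) in Krebs-HEPES, pH 7.4.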

Compound | Ki [1] | Ki [2]
Fc1cccc(-c2c(F)cccc2CO[C@H]2CCNC2)c1F [Example A-26, (S)-3-(6,2′,3′-Trifluoro-biphenyl-2-ylmethoxy)-pyrrolidine hydrochloride] | 622 nM | 30.6 nM
CC(C)Oc1ccccc1-c1ccccc1CO[C@H]1CCNC1 [Example A-19, (S)-3-(2′-Isopropoxy-biphenyl-2-ylmethoxy)-pyrrolidine fumarate] | 752 nM | 111 nM
c1cncc(-c2ccccc2CO[C@H]2CCNC2)c1 [Example A-27, (S)-3-[2-(Pyrrolidin-3-yloxymethyl)-phenyl]-pyridine hydrochloride] | 211 nM | 2210 nM
(S)-1-{3-[2-Pyrrolidin-3-yloxymethyl)-phenyl]-pyridin-2-yl}-piperazine [Example D-125] | 6930 nM | ≥ 10000 nM
COc1c(C)cc(-c2ccccc2CO[C@H]2CCNC2)cc1C [Example D-25, (S)-(4′-Methoxy-3′,5′-dimethyl-biphenyl-2-ylmethoxy)-pyrroldine] | 124 nM | 269 nM
c1ccc(-c2ccc3c(c2)CCO3)c(CO[C@H]2CCNC2)c1 [Example D-32, (S)-3-[2-(2,3-Dihydro-benzofuran-5-yl)-benzyloxy]-pyrrolidine] | 549 nM | 516 nM
Cc1cc(-c2ccccc2CO[C@H]2CCNC2)ccc1F [Example D-11, (S)-3-(4′-Fluoro-3′-methyl-biphenyl-2-ylmethoxy)-pyrrolidine] | 26.7 nM | 39.6 nM
COc1ccc(-c2ccccc2CO[C@H]2CCNC2)cc1F [Example D-21, (S)-3-(3′-Fluoro-4′-methoxy-biphenyl-2-ylmethoxy)-pyrrolidine] | 431 nM | 113 nM
Fc1ccc(-c2ccccc2CO[C@H]2CCNC2)cc1Cl [Example D-14, (S)-3-(3′-Chloro-4′-fluoro-biphenyl-2-ylmethoxy)-pyrrolidine] | 15.1 nM | 47.3 nM
COc1ccc(-c2ccc(F)cc2CO[C@H]2CCNC2)c(OC)c1 [Example D-77, (S)-3-(4-Fluoro-2′,4′-dimethoxy-biphenyl-2-ylmethoxy)-pyrrolidine] | 1400 nM | 1350 nM
Fc1cc(CO[C@H]2CCNC2)c(-c2cccc(F)c2F)cc1F [Example A-31, (3S)-3-[(2′,3′,4,5-tetrafluorobiphenyl-2-yl)methoxy]pyrrolidine fumarate] | 142 nM | 46.3 nM
N#Cc1ccc(-c2ccccc2CO[C@H]2CCNC2)cc1 [Example D-51] | 5460 nM | 5410 nM
COc1ccc(OC)c(-c2ccc(F)cc2CO[C@H]2CCNC2)c1 [Example D-68, (S)-3-(4-Fluoro-2′,5′-dimethoxy-biphenyl-2-ylmethoxy)-pyrrolidine] | 1240 nM | 1160 nM
Cc1ccc(-c2ccccc2CO[C@H]2CCNC2)cc1 [Example A-2, (S)-3-(4′-Methyl-biphenyl-2-ylmethoxy)-pyrrolidine hydrochloride] | 93.3 nM | 7.6 nM
Fc1ccc(-c2cc(Cl)cc(Cl)c2)c(CO[C@H]2CCNC2)c1 [Example D-65, (S)-3-(3′,5′-Dichloro-4-fluoro-biphenyl-2-ylmethoxy)-pyrrolidine] | 49.7 nM | 265 nM
Cc1cccc(-c2ccccc2CO[C@H]2CCNC2)c1C [Example D-33, (S)-3-(2′,3′-Dimethyl-biphenyl-2-ylmethoxy)-pyrrolidine] | 28.9 nM | 526 nM
N#Cc1cccc(-c2ccc(F)cc2CO[C@H]2CCNC2)c1 [Example D-62, (S)-4′-Fluoro-2′-(pyrrolidin-3-yloxymethyl)-biphenyl-3-carbonitrile] | 319 nM | 480 nM
CC(=O)c1ccc(-c2ccccc2CO[C@H]2CCNC2)cc1 [Example D-47, (S)-1-[2′-(Pyrrolidin-3-yloxymethyl)-biphenyl-4-yl]-ethanone] | 906 nM | 4120 nM
Fc1ccc(-c2ccccc2F)c(CO[C@H]2CCNC2)c1 [Example A-9, (S)-3-(4,2′-Difluoro-biphenyl-2-ylmethoxy)-pyrrolidine fumarate] | 174 nM | 17.7 nM
Fc1ccccc1-c1ccccc1CO[C@H]1CCNC1 [Example D-10, (S)-3-(2′-Fluoro-biphenyl-2-ylmethoxy)-pyrrolidine] | 317 nM | 26.5 nM
Fc1cccc(-c2cccnc2CO[C@H]2CCNC2)c1F [Example C-2, (S)-3-(2,3-Difluoro-phenyl)-2-(pyrrolidin-3-yloxymethyl)-pyridine fumarate] | 74.6 nM | 845 nM
Fc1ccc(-c2ccccc2CO[C@@H]2CCNC2)c(F)c1 [Example A-20, (R)-3-(2′,4′-Difluoro-biphenyl-2-ylmethoxy)-pyrrolidine fumarate] | 313 nM | 127 nM
Fc1ccccc1-c1cccc(F)c1CO[C@H]1CCNC1 [Example A-30, (3S)-3-[(2′,3-difluorobiphenyl-2-yl)methoxy]pyrrolidine fumarate] | 247 nM | 80.1 nM
Fc1ccc(-c2c(F)cccc2CO[C@H]2CCNC2)c(F)c1 [Example A-34, (3S)-3-[(2′,4′,6-trifluorobiphenyl-2-yl)methoxy]pyrrolidine hydrochloride] | 439 nM | 23.3 nM
COc1ccccc1-c1ccccc1CO[C@H]1CCNC1 [Example D-31, (S)-3-(2′-Methoxy-biphenyl-2-ylmethoxy)-pyrrolidine] | 3100 nM | 464 nM
CSc1ccccc1-c1ccccc1CO[C@H]1CCNC1 [Example A-21, (S)-3-(2′-Methylsulfanyl-biphenyl-2-ylmethoxy)-pyrrolidine hydrochloride] | 307 nM | 610 nM
OCc1cccc(-c2ccccc2CO[C@H]2CCNC2)c1 [Example D-38, (S)-[2′-(Pyrrolidin-3-yloxymethyl)-biphenyl-3-yl]-methanol] | 39.3 nM | 1190 nM

The next lines start with the values.

Ki [1] | Ki [2] | Compound
286 nM | 148 nM | Fc1ccc(-c2ccccc2OCc2ccccc2)c(CO[C@H]2CCNC2)c1 [Example D-97, (S)-3-(2′-Benzyloxy-4-fluoro-biphenyl-2-ylmethoxy)-pyrrolidine]
1570 nM | 560 nM | N#Cc1cccc(-c2cccc(F)c2F)c1CO[C@H]1CCNC1 [Example E-3, (S)-2′,3′-Difluoro-2-(pyrrolidin-3-yloxymethyl)-biphenyl-3-carbonitrile fumarate]
2730 nM | 7400 nM | c1ccc(-c2cnc3[nH]ccc3c2)c(CO[C@H]2CCNC2)c1 [Example D-124, (S)-5-[2-(Pyrrolidin-3-yloxymethyl)-phenyl]-1H-pyrrolo[2,3-b]pyridine]
76.2 nM | 278 nM | Fc1cc(F)cc(-c2ccc(F)cc2CO[C@H]2CCNC2)c1 [Example D-86, (S)-(4,3′,5′-Trifluoro-biphenyl-2-ylmethoxy)-pyrrolidine]
769 nM | 659 nM | c1ccc(-c2cccc3ncccc23)c(CO[C@H]2CCNC2)c1 [Example D-122, (S)-5-[2-(Pyrrolidin-3-yloxymethyl)-phenyl]-quinoline]
124 nM | 3080 nM | OCc1cccc(-c2ccc(F)cc2CO[C@H]2CCNC2)c1 [Example D-87, (S)-[4′-Fluoro-2′-(pyrrolidin-3-yloxymethyl)-biphenyl-3-yl]-methanol]
292 nM | 187 nM | COc1ccc(-c2ccc(F)cc2CO[C@H]2CCNC2)cc1C [Example D-98, (S)-3-(4-Fluoro-4′-methoxy-3′-methyl-biphenyl-2-ylmethoxy)-pyrrolidine]
516 nM | 68.3 nM | Oc1cccc(-c2ccc(F)cc2CO[C@H]2CCNC2)c1 [Example D-90, (S)-4′-Fluoro-2′-(pyrrolidin-3-yloxymethyl)-biphenyl-3-ol]
2160 nM | ≥ 10000 nM | NC(=O)c1cccc(-c2ccc(F)cc2CO[C@H]2CCNC2)c1 [Example D-117, (S)-4′-Fluoro-2′-(pyrrolidin-3-yloxymethyl)-biphenyl-3-carboxylic acid amide]
324 nM | 706 nM | CCOc1ccc(-c2ccc(F)cc2CO[C@H]2CCNC2)cc1 [Example D-85, (S)-3-(4′-Ethoxy-4-fluoro-biphenyl-2-ylmethoxy)-pyrrolidine]
220 nM | 112 nM | Cc1ccc(-c2ccc(F)cc2CO[C@H]2CCNC2)cc1C [Example D-104, (S)-3-(4-Fluoro-3′,4′-dimethyl-biphenyl-2-ylmethoxy)-pyrrolidine]
606 nM | 674 nM | COc1ccc(-c2ccc(F)cc2CO[C@H]2CCNC2)cc1 [Example D-115, (S)-3-(4-Fluoro-4′-methoxy-biphenyl-2-ylmethoxy)-pyrrolidine]
3780 nM | 962 nM | Fc1ccc(-c2ccccc2-c2ccccc2)c(CO[C@H]2CCNC2)c1 [Example D-101, (S)-3-(4″-Fluoro-[1,1′,2′,1″]terphenyl-2″-ylmethoxy)-pyrrolidine]
16.5 nM | 935 nM | Fc1ccc(-c2ccc(OC(F)(F)F)cc2)c(CO[C@H]2CCNC2)c1 [Example D-91, (S)-3-(4-Fluoro-4′-trifluoromethoxy-biphenyl-2-ylmethoxy)-pyrrolidine]
1320 nM | 1200 nM | N#Cc1ccc(-c2ccc(F)cc2CO[C@H]2CCNC2)cc1 [Example D-110, (S)-4′-Fluoro-2′-(pyrrolidin-3-yloxymethyl)-biphenyl-4-carbonitrile]
371 nM | 1970 nM | CC(=O)c1cccc(-c2ccc(F)cc2CO[C@H]2CCNC2)c1 [Example D-81, (S)-1-[4′-Fluoro-2′-(pyrrolidin-3-yloxymethyl)-biphenyl-3-yl]-ethanone]
